{
  "source": "patent US8431577B2",
  "about": "“Crystalline form of eszopiclone, composition, preparation and uses thereof” (Tianjin Tasly Group Co., Ltd., priority 2008, dated 2013)",
  "origin": "cited, not measured here",
  "details": "comparative acute toxicity research; cited from earlier work",
  "data": [
    {"compound": "CN1CCN(C(=O)O[C@H]2c3nccnc3C(=O)N2c2ccc(Cl)cn2)CC1", "note": "[S-zopiclone, (+)-(S)-(4-methylpiperazine-1-carboxylate)(6-(5-chloropyridinyl-2-yl)-7-carbonyl-6,7-dihydro-5-H-pyrrolo[3,4-b]pyrazin-5-yl ester)]", "values": [
      {"measurement": "acute toxicity compared with racemic zopiclone", "value": "low toxicity than that of the racemic zopiclone"}
    ]}
  ]
}
